Results: ChEMBL document CHEMBL1152249, “2,6-Diaryl-4-acylaminopyrimidines as potent and selective adenosine A(2A) antagonists with improved solubility and metabolic stability” (Bioorg Med Chem Lett, 2008)
Activity calls are given as the source filed them. The calls are words filed in the database; no cut-off is given here.

Target: Cytochrome P450 2D6 (Homo sapiens, UniProt P10635)
Test: Inhibition of CYP2D6
Type: ADME
Conditions: not given

Chain of Cytochrome P450 2D6 (P10635 whole entry): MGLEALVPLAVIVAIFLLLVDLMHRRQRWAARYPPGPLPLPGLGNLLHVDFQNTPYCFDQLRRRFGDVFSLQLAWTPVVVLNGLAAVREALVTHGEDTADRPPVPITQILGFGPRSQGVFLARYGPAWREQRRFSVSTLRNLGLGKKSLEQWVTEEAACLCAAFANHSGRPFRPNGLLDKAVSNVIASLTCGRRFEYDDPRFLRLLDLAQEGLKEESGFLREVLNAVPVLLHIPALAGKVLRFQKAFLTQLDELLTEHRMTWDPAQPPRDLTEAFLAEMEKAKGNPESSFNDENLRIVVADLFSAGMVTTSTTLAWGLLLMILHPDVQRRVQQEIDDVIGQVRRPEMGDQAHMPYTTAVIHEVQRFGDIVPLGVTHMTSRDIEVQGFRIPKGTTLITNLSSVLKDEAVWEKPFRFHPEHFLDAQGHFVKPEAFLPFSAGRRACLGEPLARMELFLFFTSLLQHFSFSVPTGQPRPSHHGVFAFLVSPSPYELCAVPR

Structure (SMILES)	Activity
CC(=O)Nc1cc(-c2cc(F)cc(O[C@H]3CCN(C)C3)c2)nc(-n2nc(C)cc2C)n1	Not Active

Tested on: Rattus norvegicus
Test: Inhibition of haloperidol-induced catalepsy in rat at 30 mg/kg, po
Type: functional, organism-based
Design: dose 30 mg/kg
Conditions: not given

Structure (SMILES)	Activity
CC(=O)Nc1cc(-c2cc(F)cc(O[C@H]3CCN(C)C3)c2)nc(-n2nc(C)cc2C)n1	Active

Tested on: Rattus norvegicus
Test: Inhibition of haloperidol-induced catalepsy in po dosed rat
Type: functional
Conditions: read-out: MED

Structure (SMILES)	minimal effective dose [mg/kg]
COc1cc(OC)cc(-c2cc(NC(C)=O)nc(-n3nc(C)cc3C)n2)c1	1

Target: Adenosine receptor A2a (Homo sapiens, UniProt P29274)
Sequence (P29274 whole entry): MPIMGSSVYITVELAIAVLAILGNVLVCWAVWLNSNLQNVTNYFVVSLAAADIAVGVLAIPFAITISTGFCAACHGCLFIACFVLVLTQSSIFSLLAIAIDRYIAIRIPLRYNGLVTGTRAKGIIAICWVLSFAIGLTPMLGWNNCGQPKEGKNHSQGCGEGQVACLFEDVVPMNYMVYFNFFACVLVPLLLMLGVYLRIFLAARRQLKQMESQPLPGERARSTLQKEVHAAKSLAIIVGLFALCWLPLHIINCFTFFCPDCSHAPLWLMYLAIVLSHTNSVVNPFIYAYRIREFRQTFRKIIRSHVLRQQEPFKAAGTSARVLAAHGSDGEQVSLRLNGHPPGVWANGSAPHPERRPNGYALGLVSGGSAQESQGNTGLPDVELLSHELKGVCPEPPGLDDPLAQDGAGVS
Test: Displacement of [3H]ZM-241385 from human adenosine A2A receptor expressed in HEK293 cells
Type: cell-based
Conditions: not given

Structure (SMILES)	Ki [nM]
COc1ccc(-c2cc(NC(C)=O)nc(-n3nc(C)cc3C)n2)cc1	17
CN1CCN(CC(=O)Nc2cc(-n3cccn3)nc(-c3ccco3)n2)CC1	3
CC(=O)Nc1cc(-c2cc(F)cc(F)c2)nc(-n2nc(C)cc2C)n1	4
CC(=O)Nc1cc(-c2cc(C)cc(C)c2)nc(-n2nc(C)cc2C)n1	8
CC(=O)Nc1cc(-c2cccc(CC#N)c2)nc(-n2nc(C)cc2C)n1	2
CC(=O)Nc1cc(-c2cc(O)cc(F)c2)nc(-n2nc(C)cc2C)n1	2
CC(=O)Nc1cc(-c2cccc(C#N)c2)nc(-n2nc(C)cc2C)n1	2
COc1cc(OC)cc(-c2cc(NC(C)=O)nc(-n3nc(C)cc3C)n2)c1	0.2
CC(=O)Nc1cc(-c2cccc(O)c2)nc(-n2nc(C)cc2C)n1	2
CC(=O)Nc1cc(-c2cccc(OC3CCN(C(C)C)C3)c2)nc(-n2nc(C)cc2C)n1 (centres undefined)	3
CC(=O)Nc1cc(-c2cccc(CO[C@@H]3CCN(C)C3)c2)nc(-n2nc(C)cc2C)n1	67
CC(=O)Nc1cc(-c2cccc(OC3CCN(C)CC3)c2)nc(-n2nc(C)cc2C)n1	6
CC(=O)Nc1cc(-c2cc(F)cc(OC3CCN(C)C3)c2)nc(-n2nc(C)cc2C)n1 (centres undefined)	1
CC(=O)Nc1cc(-c2cc(F)cc(O[C@@H]3CCN(C)C3)c2)nc(-n2nc(C)cc2C)n1	2
CC(=O)Nc1cc(-c2cccc(O[C@H]3CCN(C)C3)c2)nc(-n2nc(C)cc2C)n1	2
CC(=O)Nc1cc(-c2ccccc2)nc(-n2nc(C)cc2C)n1	87
CC(=O)Nc1cc(-c2cccc(OC3CCN(C)C3)c2)nc(-n2nc(C)cc2C)n1 (centres undefined)	2
COc1c(F)cccc1-c1cc(NC(C)=O)nc(-n2nc(C)cc2C)n1	3
CC(=O)Nc1cc(-c2cccc(OC3CCCN(C)C3)c2)nc(-n2nc(C)cc2C)n1 (centres undefined)	1
COc1cccc(-c2cc(NC(C)=O)nc(-n3nc(C)cc3C)n2)c1	1
CC(=O)Nc1cc(-c2cccc(OCCN(C)C)c2)nc(-n2nc(C)cc2C)n1	5
CC(=O)Nc1cc(-c2cc(F)cc(O[C@H]3CCN(C)C3)c2)nc(-n2nc(C)cc2C)n1	1
CCN1CCC(Oc2cccc(-c3cc(NC(C)=O)nc(-n4nc(C)cc4C)n3)c2)C1 (centres undefined)	3
CC(=O)Nc1cc(-c2cccc(C)c2)nc(-n2nc(C)cc2C)n1	7
COc1ccccc1-c1cc(NC(C)=O)nc(-n2nc(C)cc2C)n1	2
CC(=O)Nc1cc(-c2cccc(CO[C@H]3CCN(C)C3)c2)nc(-n2nc(C)cc2C)n1	73
CC(=O)Nc1cc(-c2cc(C)ccc2C)nc(-n2nc(C)cc2C)n1	19
CC(=O)Nc1cc(-c2cccc(C(F)(F)F)c2)nc(-n2nc(C)cc2C)n1	2
CC(=O)Nc1cc(-c2cccc(O[C@@H]3CCN(C)C3)c2)nc(-n2nc(C)cc2C)n1	4

Target: Cytochrome P450 3A4 (Homo sapiens, UniProt P08684)
Sequence (P08684 whole entry): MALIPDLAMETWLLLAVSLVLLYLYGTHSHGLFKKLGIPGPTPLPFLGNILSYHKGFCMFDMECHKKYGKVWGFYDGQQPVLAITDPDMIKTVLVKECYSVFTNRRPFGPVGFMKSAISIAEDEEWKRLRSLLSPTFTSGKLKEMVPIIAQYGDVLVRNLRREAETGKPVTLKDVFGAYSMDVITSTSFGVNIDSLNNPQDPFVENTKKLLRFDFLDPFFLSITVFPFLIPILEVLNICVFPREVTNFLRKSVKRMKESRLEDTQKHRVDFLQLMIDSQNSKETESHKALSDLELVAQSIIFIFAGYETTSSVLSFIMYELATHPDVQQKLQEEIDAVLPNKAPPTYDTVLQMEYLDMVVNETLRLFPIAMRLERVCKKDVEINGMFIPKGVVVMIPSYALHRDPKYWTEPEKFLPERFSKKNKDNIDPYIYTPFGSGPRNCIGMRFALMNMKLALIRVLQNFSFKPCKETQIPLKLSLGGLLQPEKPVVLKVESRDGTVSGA
Test: Inhibition of CYP3A4
Type: ADME
Conditions: not given

Structure (SMILES)	Activity
CC(=O)Nc1cc(-c2cc(F)cc(O[C@H]3CCN(C)C3)c2)nc(-n2nc(C)cc2C)n1	Not Active

Same assay, conditions: TDE = time-dependent effect

Structure (SMILES)	Activity
COc1cc(OC)cc(-c2cc(NC(C)=O)nc(-n3nc(C)cc3C)n2)c1	tde

Tested on: not listed separately
Test: Aqueous solubility at pH 8.0 by HPLC
Type: physicochemical
Conditions: not given

Structure (SMILES)	solubility [µg/mL]
COc1cc(OC)cc(-c2cc(NC(C)=O)nc(-n3nc(C)cc3C)n2)c1	< 100
CC(=O)Nc1cc(-c2cccc(OC3CCN(C)C3)c2)nc(-n2nc(C)cc2C)n1 (centres undefined)	> 4000
COc1c(F)cccc1-c1cc(NC(C)=O)nc(-n2nc(C)cc2C)n1	< 100
CC(=O)Nc1cc(-c2cccc(OCCN(C)C)c2)nc(-n2nc(C)cc2C)n1	> 4000
CC(=O)Nc1cc(-c2cc(F)cc(O[C@H]3CCN(C)C3)c2)nc(-n2nc(C)cc2C)n1	> 4000

Target: Adenosine receptor A2a (Rattus norvegicus, UniProt P30543)
Sequence (P30543 whole entry): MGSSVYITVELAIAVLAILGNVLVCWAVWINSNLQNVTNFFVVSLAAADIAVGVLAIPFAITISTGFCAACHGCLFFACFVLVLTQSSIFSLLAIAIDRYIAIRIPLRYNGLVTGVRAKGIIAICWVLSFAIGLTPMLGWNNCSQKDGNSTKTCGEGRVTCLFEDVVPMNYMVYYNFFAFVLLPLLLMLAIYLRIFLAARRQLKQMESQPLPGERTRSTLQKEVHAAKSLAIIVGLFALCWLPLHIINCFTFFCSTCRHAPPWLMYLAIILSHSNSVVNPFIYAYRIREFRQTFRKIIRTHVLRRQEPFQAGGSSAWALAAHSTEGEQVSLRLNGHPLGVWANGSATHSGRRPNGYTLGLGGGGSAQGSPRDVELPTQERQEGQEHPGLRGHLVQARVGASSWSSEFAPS
Test: Activity at adenosine A2A receptor in rat PC12 cells assessed as intracellular cAMP accumulation
Type: functional, cell-based, PC-12
Conditions: not given

Structure (SMILES)	IC50 [nM]
COc1cc(OC)cc(-c2cc(NC(C)=O)nc(-n3nc(C)cc3C)n2)c1	29
CC(=O)Nc1cc(-c2cccc(OC3CCN(C)C3)c2)nc(-n2nc(C)cc2C)n1 (centres undefined)	42
CC(=O)Nc1cc(-c2cc(F)cc(O[C@H]3CCN(C)C3)c2)nc(-n2nc(C)cc2C)n1	15

Species on record: Homo sapiens
Test: Selectivity for human adenosine A2A receptor over human adenosine A1 receptor
Conditions: not given

Structure (SMILES)	Ratio Ki
COc1ccc(-c2cc(NC(C)=O)nc(-n3nc(C)cc3C)n2)cc1	44
CC(=O)Nc1cc(-c2cc(F)cc(F)c2)nc(-n2nc(C)cc2C)n1	64
CC(=O)Nc1cc(-c2cc(C)cc(C)c2)nc(-n2nc(C)cc2C)n1	43
CC(=O)Nc1cc(-c2cccc(CC#N)c2)nc(-n2nc(C)cc2C)n1	50
CC(=O)Nc1cc(-c2cc(O)cc(F)c2)nc(-n2nc(C)cc2C)n1	54
CC(=O)Nc1cc(-c2cccc(C#N)c2)nc(-n2nc(C)cc2C)n1	10
COc1cc(OC)cc(-c2cc(NC(C)=O)nc(-n3nc(C)cc3C)n2)c1	111
CC(=O)Nc1cc(-c2cccc(O)c2)nc(-n2nc(C)cc2C)n1	74
CC(=O)Nc1cc(-c2cccc(OC3CCN(C(C)C)C3)c2)nc(-n2nc(C)cc2C)n1 (centres undefined)	167
CC(=O)Nc1cc(-c2cccc(CO[C@@H]3CCN(C)C3)c2)nc(-n2nc(C)cc2C)n1	99
CC(=O)Nc1cc(-c2cccc(OC3CCN(C)CC3)c2)nc(-n2nc(C)cc2C)n1	146
CC(=O)Nc1cc(-c2cc(F)cc(OC3CCN(C)C3)c2)nc(-n2nc(C)cc2C)n1 (centres undefined)	135
CC(=O)Nc1cc(-c2cc(F)cc(O[C@@H]3CCN(C)C3)c2)nc(-n2nc(C)cc2C)n1	125
CC(=O)Nc1cc(-c2cccc(O[C@H]3CCN(C)C3)c2)nc(-n2nc(C)cc2C)n1	320
CC(=O)Nc1cc(-c2ccccc2)nc(-n2nc(C)cc2C)n1	7
CC(=O)Nc1cc(-c2cccc(OC3CCN(C)C3)c2)nc(-n2nc(C)cc2C)n1 (centres undefined)	191
COc1c(F)cccc1-c1cc(NC(C)=O)nc(-n2nc(C)cc2C)n1	164
CC(=O)Nc1cc(-c2cccc(OC3CCCN(C)C3)c2)nc(-n2nc(C)cc2C)n1 (centres undefined)	203
COc1cccc(-c2cc(NC(C)=O)nc(-n3nc(C)cc3C)n2)c1	72
CC(=O)Nc1cc(-c2cccc(OCCN(C)C)c2)nc(-n2nc(C)cc2C)n1	134
CC(=O)Nc1cc(-c2cc(F)cc(O[C@H]3CCN(C)C3)c2)nc(-n2nc(C)cc2C)n1	218
CCN1CCC(Oc2cccc(-c3cc(NC(C)=O)nc(-n4nc(C)cc4C)n3)c2)C1 (centres undefined)	168
CC(=O)Nc1cc(-c2cccc(C)c2)nc(-n2nc(C)cc2C)n1	59
COc1ccccc1-c1cc(NC(C)=O)nc(-n2nc(C)cc2C)n1	71
CC(=O)Nc1cc(-c2cccc(CO[C@H]3CCN(C)C3)c2)nc(-n2nc(C)cc2C)n1	102
CC(=O)Nc1cc(-c2cc(C)ccc2C)nc(-n2nc(C)cc2C)n1	46
CC(=O)Nc1cc(-c2cccc(C(F)(F)F)c2)nc(-n2nc(C)cc2C)n1	40
CC(=O)Nc1cc(-c2cccc(O[C@@H]3CCN(C)C3)c2)nc(-n2nc(C)cc2C)n1	145

Tested on: not listed separately
Test: Metabolic stability in human liver microsomes assessed as intrinsic clearance
Type: ADME, Microsome
Conditions: not given

Structure (SMILES)	CLint scaled [mL/min/kg]
CC(=O)Nc1cc(-c2cc(F)cc(OC3CCN(C)C3)c2)nc(-n2nc(C)cc2C)n1 (centres undefined)	3
CC(=O)Nc1cc(-c2cc(F)cc(O[C@@H]3CCN(C)C3)c2)nc(-n2nc(C)cc2C)n1	3
CC(=O)Nc1cc(-c2cccc(OC3CCN(C)C3)c2)nc(-n2nc(C)cc2C)n1 (centres undefined)	54
CC(=O)Nc1cc(-c2cc(F)cc(O[C@H]3CCN(C)C3)c2)nc(-n2nc(C)cc2C)n1	3
